Results reported in article PMC7036871, “Identification and Characterization of pantocin wh-1, a Novel Cyclic Polypeptide Produced by Pantoea dispersa W18” (Molecules, 2020).
Where a SMILES comes first, the peptide text is derived from it.

Legend:
Klebsiella = test: Antimicrobial spectrum, microporous dilution method; format: cell-based
Experimental: (§1) In this paper, the microporous dilution method was used to detect the antibacterial spectrum of pantocin wh-1 against Gram-negative and -positive bacteria. […] The time kill studies were determined over 8 h with M. smegmatis mc^2 155 being exposed to 0.5, 1, 2, or 4 × MIC of pantocin wh-1. […] At 2 × MIC and 4 × MIC, pantocin wh-1 caused bacterial eradication was completed approximately after 4 h.
(§2) The antibacterial activity of the pantocin wh-1 was detected by the microscale optical density assay (MODA) method. Briefly, 90 μL of the dilutions of pantocin wh-1, 100 μL 2 × 7H9 medium, and 10 μL of a log phase indicator strain were co-incubated in the 96-well plate at 37 °C for 48 h. For control groups, 90 μL of the dilutions of pantocin wh-1 were replaced by an equal volume of sterile water. After incubation, the 96 well microplate was measured by a microplate reader at a 600 nm wavelength (Biotek synergyH1, Biotek, Winooski, VT, USA). The amount of pantocin wh-1 produced by P. dispersa W18 was determined using two fold dilutions. […] The results were expressed in AU/mL. The MIC was defined as the last dilution of pantocin wh-1 sufficient to prevent indicator strain growth in vitro.

M. smegmatis mc^2 155 = test: Antibacterial activity, microscale optical density assay (MODA) / microporous dilution; format: cell-based, Mycobacterium smegmatis; set-up: key: -: no inhibitory activity; +: Inhibit the growth of less than 10% amount of the initial bacteria; ++: Inhibit the growth of less than 50% amount of the initial bacteria; +++: Inhibit the growth of initial bacteria completely; settings: M. smegmatis mc2155, medium 7H9
Experimental: as §1, §2

Dysgalactiae = test: Antimicrobial spectrum, microporous dilution method; format: cell-based; set-up: key: -: no inhibitory activity; +: Inhibit the growth of less than 10% amount of the initial bacteria; ++: Inhibit the growth of less than 50% amount of the initial bacteria; +++: Inhibit the growth of initial bacteria completely; settings: medium BHI
Experimental: as §1, §2

S. aureus B31 = test: as above; format: cell-based; set-up: key: -: no inhibitory activity; +: Inhibit the growth of less than 10% amount of the initial bacteria; ++: Inhibit the growth of less than 50% amount of the initial bacteria; +++: Inhibit the growth of initial bacteria completely; settings: S. aureus B31, medium LB
Experimental: as §1, §2

Bacillus cereus = test: as above; format: cell-based; set-up: key: -: no inhibitory activity; +: Inhibit the growth of less than 10% amount of the initial bacteria; ++: Inhibit the growth of less than 50% amount of the initial bacteria; +++: Inhibit the growth of initial bacteria completely; settings: medium LB
Experimental: as §1, §2

Feces Enterococcus = test: as above; format: cell-based; set-up: key: -: no inhibitory activity; +: Inhibit the growth of less than 10% amount of the initial bacteria; ++: Inhibit the growth of less than 50% amount of the initial bacteria; +++: Inhibit the growth of initial bacteria completely; settings: medium BHI
Experimental: as §1, §2

S. aureus B30 = test: as above; format: cell-based; set-up: key: -: no inhibitory activity; +: Inhibit the growth of less than 10% amount of the initial bacteria; ++: Inhibit the growth of less than 50% amount of the initial bacteria; +++: Inhibit the growth of initial bacteria completely; settings: S. aureus B30, medium LB
Experimental: as §1, §2

[1] = as above; format: cell-based; set-up: key: -: no inhibitory activity; +: Inhibit the growth of less than 10% amount of the initial bacteria; ++: Inhibit the growth of less than 50% amount of the initial bacteria; +++: Inhibit the growth of initial bacteria completely; settings: White aureus 8799, medium LB
Experimental: as §1, §2

S. aureus 21A = test: as above; format: cell-based; set-up: key: -: no inhibitory activity; +: Inhibit the growth of less than 10% amount of the initial bacteria; ++: Inhibit the growth of less than 50% amount of the initial bacteria; +++: Inhibit the growth of initial bacteria completely; settings: medium LB
Experimental: as §1, §2

S. aureus AM025 = test: as above; format: cell-based; set-up: key: -: no inhibitory activity; +: Inhibit the growth of less than 10% amount of the initial bacteria; ++: Inhibit the growth of less than 50% amount of the initial bacteria; +++: Inhibit the growth of initial bacteria completely; settings: S. aureus AM025, medium LB
Experimental: as §1, §2

P. aeruginosa = test: as above; format: cell-based; set-up: key: -: no inhibitory activity; +: Inhibit the growth of less than 10% amount of the initial bacteria; ++: Inhibit the growth of less than 50% amount of the initial bacteria; +++: Inhibit the growth of initial bacteria completely; settings: medium LB
Experimental: as §1, §2

S. pyogenes = test: as above; format: cell-based; set-up: key: -: no inhibitory activity; +: Inhibit the growth of less than 10% amount of the initial bacteria; ++: Inhibit the growth of less than 50% amount of the initial bacteria; +++: Inhibit the growth of initial bacteria completely; settings: medium BHI
Experimental: as §1, §2

DNase = test: Effect of enzymes on antibacterial activity: DNase; format: in vitro ADME
Excerpt: Furthermore, the antibacterial activity of pantocin wh-1 also retained nearly 100% of the initial activity within a broad pH range (pH 2–12).
The effect of various enzymes, pH, and temperature on pantocin wh-1 activity was detected as described by J.-M. Chobert et al. with a slight modification. Proteinase K, trypsin, catalase, lysozyme, DNAse, and RNAse were used to test the antibacterial activity of pantocinwh-1. To analyze the effect of different pH values on the antibacterial activity of pantocin wh-1, the sample of pantocin wh-1 was exposed to buffer with a pH value of 2–12 for 1 h at 25 °C. The effect of temperature on the anti-mycobacterial activity of pantocin wh-1 was determined by incubating pantocin wh-1 at 50 °C and 100 °C for 60 min, as well as at 121 °C for 15 min, and then detecting the bactericidal activity against M. smegmatis mc^2 155.

L .monocytogenes = test: Antimicrobial spectrum, microporous dilution method; format: cell-based, Listeria monocytogenes
Experimental: as §1, §2

CSCC[C@@H]1NC(=O)[C@H](C(C)C)NC(=O)[C@H](Cc2c[nH]c3ccccc23)NC(=O)[C@H](C(C)C)NC(=O)[C@H](C)NC(=O)[C@H](CS)NC(=O)[C@H](CC(N)=O)NC(=O)[C@H](Cc2ccccc2)NC(=O)CNC(=O)[C@H](Cc2ccc(O)cc2)NC(=O)CNC(=O)[C@H](Cc2ccccc2)NC(=O)[C@H](C(C)C)NC(=O)[C@H](Cc2ccc(O)cc2)NC(=O)[C@H](CS)NC(=O)[C@H](Cc2c[nH]c3ccccc23)NC1=O [pantocin wh-1] (cyclo(AVWVMWCYVFGYGFNC))
inhibitory activity (Klebsiella): partial inhibitory activity
Inhibition activity (M. smegmatis mc^2 155): +++
Inhibition activity (Dysgalactiae): -
Inhibition activity (S. aureus B31): -
Inhibition activity (Bacillus cereus): -
Inhibition activity (Feces Enterococcus): -
Inhibition activity (S. aureus B30): -
Inhibition activity [1]: -
Inhibition activity (S. aureus 21A): -
Inhibition activity (S. aureus AM025): -
Inhibition activity (P. aeruginosa): -
Inhibition activity (S. pyogenes): -
antibacterial activity after DNase I (DNase; DNase I): insensitive
Residual activity (DNase; DNase treatment, compared with antimicrobial activity before the treatment): 100%
Inhibition activity (L .monocytogenes; L .monocytogenes, medium BHI): + (Inhibit the growth of less than 10% amount of the initial bacteria)
inhibitory activity (L .monocytogenes; Listeria monocytogenes): partial inhibitory activity
